{
  "source": "patent US20250152592A1",
  "about": "“PHARMACEUTICAL COMPOSITION COMPRISING ALLOPURINOL, FEBUXOSTAT OR PHARMACEUTICALLY ACCEPTABLE SALT THEREOF FOR PREVENTION OR TREATMENT OF CHRONIC KIDNEY DISEASE IN SUBJECT HAVING HIGH SERUM URIC ACID CONCENTRATION” (Indream Healthcare Inc., priority 2022, published 2025)",
  "test_system": "patients with gout and a history of major cardiovascular diseases",
  "assay": "eGFR over time by average serum uric acid concentration, analysis of clinical trial data",
  "type": "in vivo, human",
  "details": "febuxostat group",
  "method": "In order to evaluate non-inferiority of febuxostat to allopurinol related to cardiovascular risk, a clinical trial was designed and proceeded.\nA multicenter, randomized, double-blind non-inferiority trial was performed. The details of the clinical trial design have been published previously. An independent data and safety monitoring committee with access to unblinded data monitored the clinical trial. The statistical analysis for the data and the safety monitoring committee was performed by an independent statistical group (WebbWrites).\nThe patients were regarded as having a history of major cardiovascular diseases, if they had myocardial infarction, hospitalization for unstable angina, stroke, hospitalization for transient ischemic attack, peripheral vascular disease, or diabetes mellitus symptoms. All participants provided a prior informed consent form.\nThe patients were randomly assigned so that they received febuxostat or allopurinol administered once a day in a double-blind manner. The randomization was stratified according to the estimated creatinine clearance at baseline (patient group having an estimated creatinine clearance ≥60 ml per minute vs patient group having an estimated creatinine clearance ≥30 and <60 ml per minute).\nThe dose of allopurinol was modified according to a kidney function. The patients with the estimated creatinine clearance 60 ml or more per minute i) initially received allopurinol at a dose of 300 mg once a day, and the dose was increased in 100 mg increments monthly until the patient had the serum uric acid concentration of less than 6.0 mg per deciliter or the dosage of allopurinol was 600 mg once a day. The patient having the estimated creatinine clearance of 30 ml or more and less than 60 ml per minute initially received 200 mg of allopurinol, and then the dose was increased in 100 mg increments until the patient either had the serum uric acid concentration of less than 6.0 mg per deciliter or was receiving the allopurinol dose of 400 mg once daily.\nThe dose of febuxostat was not modified according to the kidney function. The patients who were randomly assigned to receive febuxostat initially received 40 mg once a daily, and continued to receive the same dosage if the serum uric acid concentration was less than 6.0 mg per deciliter after 2 weeks of the treatment. If the serum uric acid concentration was higher than 6.0 mg per deciliter at 2nd week visit, the dose of febuxostat was increased to 80 mg once daily for the remainder of the trial.\nDuring the period, the administration of a double-blind and double-dummy trial medications was guided by an interactive voice-response system which was a procedure to prevent unblinding for the patients whose dose was not adjusted. After completing dose adjustment, the urate level was concealed from the investigators, and the treatment was managed throughout the trial using the interactive voice-response system.\nOutpatient visits were conducted according to the following schedule: during screening and randomization, and at 2, 4, 6, 8, 10, 12, and 24 weeks after the randomization, and every 6 months during the subsequent years of the trial. The patients with reduced kidney function or, the patients aged 65 years or older at randomization were visited at 9 and 15 months for monitoring the serum chemical profile. If the patient agreed to be monitored, but would not return for study visit, telephone contact was made, but such method was not preferred or recommended.\nIn order to confirm the effect of allopurinol and febuxostat on the kidney disease, the data obtained in the clinical trial described above was analyzed.",
  "data": [
    {"smiles": "Cc1nc(-c2ccc(OCC(C)C)c(C#N)c2)sc1C(=O)O", "note": "[febuxostat]", "values": [
      {"measurement": "eGFR Mean (95% CI)", "setting": "DBP <80, Average UA <6, Month 3", "result": "61.85 (60.63-63.08) ml/min/1.73 m^2"},
      {"measurement": "eGFR Mean (95% CI)", "setting": "DBP <80, Average UA <6, Month 6", "result": "61.84 (60.56-63.11) ml/min/1.73 m^2"},
      {"measurement": "eGFR Mean (95% CI)", "setting": "DBP <80, Average UA <6, Month 12", "result": "63.06 (61.79-64.33) ml/min/1.73 m^2"},
      {"measurement": "eGFR Mean (95% CI)", "setting": "DBP <80, Average UA <6, Month 18", "result": "63.11 (61.75-64.47) ml/min/1.73 m^2"},
      {"measurement": "eGFR Mean (95% CI)", "setting": "DBP <80, Average UA <6, Month 24", "result": "63.79 (62.31-65.27) ml/min/1.73 m^2"},
      {"measurement": "eGFR Mean (95% CI)", "setting": "DBP <80, Average UA <6, Month 30", "result": "63.51 (61.89-65.13) ml/min/1.73 m^2"},
      {"measurement": "eGFR Mean (95% CI)", "setting": "DBP <80, Average UA <6, Month 36", "result": "64.28 (62.56-66.00) ml/min/1.73 m^2"},
      {"measurement": "eGFR Mean (95% CI)", "setting": "DBP <80, Average UA <6, Month 42", "result": "64.43 (62.50-66.35) ml/min/1.73 m^2"},
      {"measurement": "eGFR Mean (95% CI)", "setting": "DBP <80, Average UA <6, Month 48", "result": "65.60 (63.48-67.72) ml/min/1.73 m^2"},
      {"measurement": "eGFR Mean (95% CI)", "setting": "DBP <80, Average UA <6, Month 54", "result": "65.70 (63.39-68.00) ml/min/1.73 m^2"},
      {"measurement": "eGFR Mean (95% CI)", "setting": "DBP <80, Average UA <6, Month 60", "result": "66.92 (64.25-69.59) ml/min/1.73 m^2"},
      {"measurement": "eGFR Mean (95% CI)", "setting": "DBP <80, Average UA <6, Week 2", "result": "62.06 (60.81-63.31) ml/min/1.73 m^2"},
      {"measurement": "eGFR Mean (95% CI)", "setting": "DBP <80, Average UA ≥6, Baseline", "result": "62.08 (59.70-64.45) ml/min/1.73 m^2"},
      {"measurement": "eGFR Mean (95% CI)", "setting": "DBP <80, Average UA ≥6, Month 3", "result": "61.44 (58.99-63.89) ml/min/1.73 m^2"},
      {"measurement": "eGFR Mean (95% CI)", "setting": "DBP <80, Average UA ≥6, Month 6", "result": "61.49 (59.02-63.95) ml/min/1.73 m^2"},
      {"measurement": "eGFR Mean (95% CI)", "setting": "DBP <80, Average UA ≥6, Month 12", "result": "60.74 (58.06-63.41) ml/min/1.73 m^2"},
      {"measurement": "eGFR Mean (95% CI)", "setting": "DBP <80, Average UA ≥6, Month 18", "result": "60.18 (57.20-63.15) ml/min/1.73 m^2"},
      {"measurement": "eGFR Mean (95% CI)", "setting": "DBP <80, Average UA ≥6, Month 24", "result": "60.32 (57.11-63.53) ml/min/1.73 m^2"},
      {"measurement": "eGFR Mean (95% CI)", "setting": "DBP <80, Average UA ≥6, Month 30", "result": "59.54 (55.89-63.19) ml/min/1.73 m^2"},
      {"measurement": "eGFR Mean (95% CI)", "setting": "DBP <80, Average UA ≥6, Month 36", "result": "60.26 (56.16-64.37) ml/min/1.73 m^2"},
      {"measurement": "eGFR Mean (95% CI)", "setting": "DBP <80, Average UA ≥6, Month 42", "result": "59.55 (55.09-64.02) ml/min/1.73 m^2"},
      {"measurement": "eGFR Mean (95% CI)", "setting": "DBP <80, Average UA ≥6, Month 48", "result": "59.84 (55.23-64.46) ml/min/1.73 m^2"},
      {"measurement": "eGFR Mean (95% CI)", "setting": "DBP <80, Average UA ≥6, Month 54", "result": "60.35 (55.08-65.62) ml/min/1.73 m^2"},
      {"measurement": "eGFR Mean (95% CI)", "setting": "DBP <80, Average UA ≥6, Month 60", "result": "60.01 (53.34-66.68) ml/min/1.73 m^2"},
      {"measurement": "eGFR Mean (95% CI)", "setting": "DBP <80, Average UA ≥6, Week 2", "result": "62.00 (59.39-64.62) ml/min/1.73 m^2"},
      {"measurement": "eGFR Mean (95% CI)", "setting": "SBP <130, Average UA <6, Baseline", "result": "64.76 (63.32-66.20) ml/min/1.73 m^2"},
      {"measurement": "eGFR Mean (95% CI)", "setting": "SBP <130, Average UA <6, Month 3", "result": "64.67 (63.21-66.12) ml/min/1.73 m^2"},
      {"measurement": "eGFR Mean (95% CI)", "setting": "SBP <130, Average UA <6, Month 6", "result": "64.87 (63.38-66.36) ml/min/1.73 m^2"},
      {"measurement": "eGFR Mean (95% CI)", "setting": "SBP <130, Average UA <6, Month 12", "result": "66.06 (64.55-67.57) ml/min/1.73 m^2"},
      {"measurement": "eGFR Mean (95% CI)", "setting": "SBP <130, Average UA <6, Month 18", "result": "66.18 (64.56-67.79) ml/min/1.73 m^2"},
      {"measurement": "eGFR Mean (95% CI)", "setting": "SBP <130, Average UA <6, Month 24", "result": "66.12 (64.42-67.83) ml/min/1.73 m^2"},
      {"measurement": "eGFR Mean (95% CI)", "setting": "SBP <130, Average UA <6, Month 30", "result": "66.59 (64.74-68.44) ml/min/1.73 m^2"},
      {"measurement": "eGFR Mean (95% CI)", "setting": "SBP <130, Average UA <6, Month 36", "result": "67.47 (65.55-69.39) ml/min/1.73 m^2"},
      {"measurement": "eGFR Mean (95% CI)", "setting": "SBP <130, Average UA <6, Month 42", "result": "66.93 (64.77-69.08) ml/min/1.73 m^2"},
      {"measurement": "eGFR Mean (95% CI)", "setting": "SBP <130, Average UA <6, Month 48", "result": "68.21 (65.88-70.54) ml/min/1.73 m^2"},
      {"measurement": "eGFR Mean (95% CI)", "setting": "SBP <130, Average UA <6, Month 54", "result": "68.62 (66.03-71.22) ml/min/1.73 m^2"},
      {"measurement": "eGFR Mean (95% CI)", "setting": "SBP <130, Average UA <6, Month 60", "result": "69.36 (66.42-72.30) ml/min/1.73 m^2"},
      {"measurement": "eGFR Mean (95% CI)", "setting": "SBP <130, Average UA <6, Week 2", "result": "65.16 (63.69-66.63) ml/min/1.73 m^2"},
      {"measurement": "eGFR Mean (95% CI)", "setting": "SBP <130, Average UA ≥6, Baseline", "result": "65.83 (63.23-68.44) ml/min/1.73 m^2"},
      {"measurement": "eGFR Mean (95% CI)", "setting": "SBP <130, Average UA ≥6, Month 3", "result": "65.54 (62.88-68.20) ml/min/1.73 m^2"},
      {"measurement": "eGFR Mean (95% CI)", "setting": "SBP <130, Average UA ≥6, Month 6", "result": "65.87 (63.30-68.43) ml/min/1.73 m^2"},
      {"measurement": "eGFR Mean (95% CI)", "setting": "SBP <130, Average UA ≥6, Month 12", "result": "65.19 (62.39-67.99) ml/min/1.73 m^2"},
      {"measurement": "eGFR Mean (95% CI)", "setting": "SBP <130, Average UA ≥6, Month 18", "result": "63.60 (60.49-66.71) ml/min/1.73 m^2"},
      {"measurement": "eGFR Mean (95% CI)", "setting": "SBP <130, Average UA ≥6, Month 24", "result": "62.90 (59.50-66.30) ml/min/1.73 m^2"},
      {"measurement": "eGFR Mean (95% CI)", "setting": "SBP <130, Average UA ≥6, Month 30", "result": "62.62 (58.76-66.48) ml/min/1.73 m^2"},
      {"measurement": "eGFR Mean (95% CI)", "setting": "SBP <130, Average UA ≥6, Month 36", "result": "65.24 (60.84-69.64) ml/min/1.73 m^2"},
      {"measurement": "eGFR Mean (95% CI)", "setting": "SBP <130, Average UA ≥6, Month 42", "result": "65.47 (60.56-70.39) ml/min/1.73 m^2"},
      {"measurement": "eGFR Mean (95% CI)", "setting": "SBP <130, Average UA ≥6, Month 48", "result": "64.82 (59.40-70.23) ml/min/1.73 m^2"},
      {"measurement": "eGFR Mean (95% CI)", "setting": "SBP <130, Average UA ≥6, Month 54", "result": "65.92 (59.74-72.11) ml/min/1.73 m^2"},
      {"measurement": "eGFR Mean (95% CI)", "setting": "SBP <130, Average UA ≥6, Month 60", "result": "64.71 (57.42-72.01) ml/min/1.73 m^2"},
      {"measurement": "eGFR Mean (95% CI)", "setting": "SBP <130, Average UA ≥6, Week 2", "result": "65.59 (62.82-68.36) ml/min/1.73 m^2"}
    ]}
  ]
}
